Source: article PMC3250956, “Functional characterization and analgesic effects of mixed cannabinoid receptor/T-type channel ligands” (Molecular Pain, 2011)

Key:
Rat CB1 = target: T1, Rat CB1 (Rattus norvegicus, UniProt P20272); assay: Radioligand competitive binding, [3H]CP55940, rat brain homogenate; settings: for Rat CB1 (%) primary radioligand competitive binding: ligand 10 μM, rat brain homogenates; for Ki: NA: not active at 1 μM, read-out: Mean Ki Rat CB1
T1 construct: membrane fractions prepared from rat brain homogenate expressing CB1 receptor; from tissue; host or cells: rat brain homogenate
Experimental: (§1) CB1 and CB2 radioligand binding data were obtained using National Institute of Mental Health (NIMH) Psychoactive Drug Screening Program (PDSP) resources as described earlier. Compounds were screened in a competitive binding experiment using, respectively, membrane fractions prepared from rat brain homogenate expressing CB1 receptor and HEK293 cells expressing the human CB2 receptor. Experiments were conducted at a range of different concentrations and in duplicate. The competition binding experiment for CB1 and CB2 was performed in 96 well plates containing Standard Binding Buffer (50 mM Tris HCl, 1 mM EDTA, 3 mM MgCl2, 5 mg/ml fatty acid-free BSA, pH 7.4). The radioligand was [^3H]CP55940, and the reference compound was CP55940. A solution of the compound to be tested was prepared as a 1 mg/ml stock in DMSO and then diluted in Standard Binding Buffer by serial dilution. Radioligand was diluted to five times the assay concentration in Standard Binding Buffer. Aliquots (50 μl) of radioligand were dispensed into the wells of a 96-well plate containing 100 μl of Standard Binding Buffer. Then, duplicate 50-μl aliquots of the test and reference compound dilutions were added. Finally, crude membrane fractions of cells were resuspended in 3 ml of chilled Standard Binding Buffer and homogenized by several passages through a 26 gauge needle, then 50 μl were dispensed into each well. The 250-μl reactions were incubated at room temperature for 1.5 hours, and then harvested by rapid filtration onto Whatman GF/B glass fiber filters pre-soaked with 0.3% polyethyleneimine using a 96-well Brandel harverster. Four rapid 500-μl washes were performed. Filters were placed in 6-ml scintillation tubes and allowed to dry overnight. Bound radioactivity was harvested onto 0.3% polyethyleneimine-treated, 96-well filter mats using a 96-well Filtermate harvester. The filter mats were dried, then scintillant was melted onto the filters and the radioactivity retained on the filters counted in a Microbeta scintillation counter. Raw data (dpm) representing total radioligand binding (i.e., specific + non-specific binding) were plotted as a function of the logarithm of the molar concentration of the competitor (i.e., test or reference compound). Non-linear regression of the normalized (i.e., percent radioligand binding compared to that observed in the absence of test or reference compound) raw data was performed in Prism 4.0 (GraphPad Software) using the built-in three parameter logistic model describing ligand competition binding to radioligand-labeled sites: y = bottom + [(top-bottom)/(1 + 10 × -logIC50)] where bottom equals the residual radioligand binding measured in the presence of 10 μM reference compound (i.e., non-specific binding) and top equals the total radioligand binding observed in the absence of competitor. The log IC50 (i.e., the log of the ligand concentration that reduces radioligand binding by 50%) is thus estimated from the data and used to obtain the Ki by applying the Cheng-Prusoff approximation: Ki = IC50/(1 + [ligand]/KD) where [ligand] equals the assay radioligand concentration and KD equals the affinity constant of the radioligand for the target receptor.

Human CB2 [1] = target: T2, Human CB2 (Homo sapiens, UniProt P34972); assay: Radioligand competitive binding, [3H]CP55940, HEK293 cells; design: expressed in transfected cells; settings: for Ki: NA: not active at 1 μM, read-out: Mean Ki Human CB2; for Human CB2 (%) primary radioligand competitive binding: ligand 10 μM, HEK293 cells
Experimental: (§2) HEK293 cells and CHO cells were used in the radioligand binding assay while tsA-201 cells were used in the electrophysiological study. Human CB2, human 5-HT2A, rat 5-HT2C used in the binding studies were cloned into pcDNA5.0FRT and cell lines were made using the FlpIn system from Invitrogen. tsA-201 cell culture and transient calcium channel transfection were performed as described previously. In brief, tsA-201 cells were transfected using the calcium phosphate method. Cav3.1, 3.2 and 3.3 α1 subunits were transfected individually with yellow fluorescent protein as a transfection marker.
as §1

human 5-HT2A = target: T3, human 5-HT2A (Homo sapiens, UniProt P28223); assay: Primary radioligand competitive binding assay, [3H]ketanserin; settings: ligand 10 μM, HEK293 cells
T3 construct: expressed in transfected cells; host or cells: HEK293 (Flp-In system, pcDNA5.0FRT)
Experimental: as §2
(§3) Radioligand binding data were obtained using National Institute of Mental Health's Psychoactive Drug Screening Program (NIMH/PDSP) using the same protocol described for CB1 and CB2 binding experiments. Transfected HEK293 (human 5-HT2A or rat 5-HT2C) cells were used. The radioligands were [^3H]ketanserin (0.5 nM) and [^3H]mesulergine (0.5 nM) for respectively 5-HT2A and 5-HT2C experiments. Non-specific binding was determined in the presence of 10 μM chlorpromazine for both 5-HT2A and 5-HT2C binding experiments. Cells were harvested and homogenized in 50 mM Tris HCl, 10 mM MgCl2, 0.1 mM EDTA, pH 7.4. Incubation of radioreceptor binding assay mixtures was 1.5 hours at room temperature in the dark.

rat 5-HT2C = target: T4, rat 5-HT2C (Rattus norvegicus, UniProt P08909); assay: Primary radioligand competitive binding assay, [3H]mesulergine; settings: ligand 10 μM, HEK293 cells
T4 construct: expressed in transfected cells; host or cells: HEK293 (Flp-In system, pcDNA5.0FRT)
T4 sequence (P08909 33-460): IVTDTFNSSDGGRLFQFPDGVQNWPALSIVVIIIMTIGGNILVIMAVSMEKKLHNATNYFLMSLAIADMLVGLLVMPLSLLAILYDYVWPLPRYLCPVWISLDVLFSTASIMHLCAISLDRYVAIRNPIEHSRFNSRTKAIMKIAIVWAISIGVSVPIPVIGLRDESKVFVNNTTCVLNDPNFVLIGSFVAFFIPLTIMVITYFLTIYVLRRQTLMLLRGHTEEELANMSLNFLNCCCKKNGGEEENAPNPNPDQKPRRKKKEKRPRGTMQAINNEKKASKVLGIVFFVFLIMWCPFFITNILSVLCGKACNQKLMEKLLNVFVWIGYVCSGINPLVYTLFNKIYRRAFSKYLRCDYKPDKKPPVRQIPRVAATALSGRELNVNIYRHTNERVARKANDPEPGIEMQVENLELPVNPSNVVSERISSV
Experimental: as §2, §3

[2] = system: T-type calcium channels (Cav3.1, Cav3.2, Cav3.3); assay: Whole-cell patch-clamp screen on recombinant T-type calcium channels in tsA-201 cells; type: cell-based, human; settings: 10 μM; held at -100 mV, pulse to -20 mV; barium current; three Cav3 isoforms
From the text: Studies have shown that several endocannabinoids and phytocannabinoids have direct inhibitory actions on T-type voltage-gated calcium channels. To determine whether the NMP compounds produced a similar effect, we characterized their actions on transiently expressed T-type calcium channels via whole-cell patch-clamp recordings. Cells were held at -100 mV and barium current was evoked by a depolarizing pulse to -20 mV.
HEK293 cells and CHO cells were used in the radioligand binding assay while tsA-201 cells were used in the electrophysiological study. Human CB2, human 5-HT2A, rat 5-HT2C used in the binding studies were cloned into pcDNA5.0FRT and cell lines were made using the FlpIn system from Invitrogen. tsA-201 cell culture and transient calcium channel transfection were performed as described previously. In brief, tsA-201 cells were transfected using the calcium phosphate method. […]
Whole-cell currents were recorded from tsa-201 cells 2-4 days after transfection. […] Currents were elicited from a holding potential of -100 mV and were measured by conventional whole-cell patch clamp using an Axopatch 200B amplifier in combination with Clampex 9.2 software (Axon Instruments, Foster City, CA). […] Electrophysiological data were analyzed using Clampfit 9.2 (Axon Instruments, Foster City, CA) and GraphPad Prism 5 software (GraphPad Software Inc., San Diego, CA). […]

Human CB1 = Human CB1 (Homo sapiens, UniProt P21554); assay: GTPγ[35S] functional assay, CHO cell membrane extracts; settings: NA: not active at 1 μM
Human CB2 [3] = target: T2, Human CB2; assay: as above; type: biochemical; design: expressed in transfected cells; host or cells: CHO cells (membrane extracts)

T1 sequence (P20272 whole entry): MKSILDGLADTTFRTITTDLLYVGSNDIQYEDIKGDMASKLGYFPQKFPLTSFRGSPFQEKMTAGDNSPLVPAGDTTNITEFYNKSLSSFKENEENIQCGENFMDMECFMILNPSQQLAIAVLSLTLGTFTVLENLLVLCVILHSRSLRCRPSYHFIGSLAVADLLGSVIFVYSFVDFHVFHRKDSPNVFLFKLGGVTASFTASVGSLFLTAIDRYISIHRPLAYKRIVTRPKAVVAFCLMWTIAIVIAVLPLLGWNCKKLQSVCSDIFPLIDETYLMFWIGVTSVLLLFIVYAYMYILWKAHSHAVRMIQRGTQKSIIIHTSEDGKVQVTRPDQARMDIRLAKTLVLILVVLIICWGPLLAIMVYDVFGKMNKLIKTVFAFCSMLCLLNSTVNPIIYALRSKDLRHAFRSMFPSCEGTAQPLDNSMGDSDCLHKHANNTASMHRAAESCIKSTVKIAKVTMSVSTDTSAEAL
T2 sequence (P34972 whole entry): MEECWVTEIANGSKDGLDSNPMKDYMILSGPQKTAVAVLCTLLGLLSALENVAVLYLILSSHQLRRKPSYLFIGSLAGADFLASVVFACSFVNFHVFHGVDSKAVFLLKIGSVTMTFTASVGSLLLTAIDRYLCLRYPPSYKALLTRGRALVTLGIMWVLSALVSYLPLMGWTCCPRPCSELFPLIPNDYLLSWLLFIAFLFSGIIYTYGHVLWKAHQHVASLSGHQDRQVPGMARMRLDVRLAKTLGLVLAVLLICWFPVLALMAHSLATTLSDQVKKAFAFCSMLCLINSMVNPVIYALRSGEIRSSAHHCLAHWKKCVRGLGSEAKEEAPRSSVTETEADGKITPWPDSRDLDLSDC
T3 sequence (P28223 whole entry): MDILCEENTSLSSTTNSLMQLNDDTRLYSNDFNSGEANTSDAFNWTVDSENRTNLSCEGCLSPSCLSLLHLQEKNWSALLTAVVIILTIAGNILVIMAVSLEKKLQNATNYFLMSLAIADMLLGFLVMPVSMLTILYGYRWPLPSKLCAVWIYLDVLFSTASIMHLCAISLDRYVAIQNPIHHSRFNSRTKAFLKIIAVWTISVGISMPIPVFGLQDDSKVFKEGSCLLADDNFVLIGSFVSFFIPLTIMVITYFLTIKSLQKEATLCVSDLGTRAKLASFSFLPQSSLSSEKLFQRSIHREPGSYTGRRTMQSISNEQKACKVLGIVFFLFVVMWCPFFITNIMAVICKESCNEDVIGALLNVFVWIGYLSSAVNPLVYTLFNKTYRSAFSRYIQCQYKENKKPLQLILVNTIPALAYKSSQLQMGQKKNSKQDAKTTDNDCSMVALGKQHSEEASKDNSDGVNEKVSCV
Human CB1, sequence (P21554 whole entry): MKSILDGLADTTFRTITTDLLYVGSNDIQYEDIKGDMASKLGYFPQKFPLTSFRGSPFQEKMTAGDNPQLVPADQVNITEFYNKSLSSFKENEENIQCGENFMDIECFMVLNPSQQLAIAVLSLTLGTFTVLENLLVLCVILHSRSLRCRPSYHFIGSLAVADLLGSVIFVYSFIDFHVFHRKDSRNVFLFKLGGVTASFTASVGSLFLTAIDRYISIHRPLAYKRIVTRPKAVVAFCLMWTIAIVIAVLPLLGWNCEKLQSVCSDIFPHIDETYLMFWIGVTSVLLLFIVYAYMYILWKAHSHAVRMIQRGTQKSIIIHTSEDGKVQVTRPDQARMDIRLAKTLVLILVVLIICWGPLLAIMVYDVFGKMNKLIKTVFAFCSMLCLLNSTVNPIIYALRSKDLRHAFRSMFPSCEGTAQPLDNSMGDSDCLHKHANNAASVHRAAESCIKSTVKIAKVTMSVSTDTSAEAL

Row | SMILES | Rat CB1 (%) primary radioligand competitive binding (Rat CB1) [%] | Ki (Human CB2 [1]) [nM] | Human 5-HT2A (%) primary radioligand competitive binding (human 5-HT2A) [%] | Rat 5-HT2C (%) primary radioligand competitive binding (rat 5-HT2C) [%] | inhibition of T-type current [2] [%] | Ki (Rat CB1) [nM] | Human CB2 (%) primary radioligand competitive binding (Human CB2 [1]) [%] | GTPγ[35S] functional assays Human CB1 EC50 (Human CB1) | EC50 (Human CB2 [3]; read-out: GTPγ[35S] functional assays Human CB2 EC50) [nM] | Emax (Human CB2 [3]; read-out: GTPγ[35S] functional assays Human CB2 Emax) [%]
1 | CCCCCn1c2ccccc2c2cc(C(=O)NCCc3ccc(Cl)cc3)ccc21 [NMP-139] | 46.3 | 3590 ± 424 | 7.7 | -7.8 | < 20 | – | – | – | – | –
2 | CCCCCn1c2c(c3ccccc31)C[C@H](C(=O)N1CCCCC1)NC2 [NMP-140] | 79.3 | 2870 ± 515 | 11.2 | -4.2 | – | 1250 ± 290 | 71.1 | – | – | –
3 | CCCCCn1c2c(c3ccccc31)C[C@@H](C(=O)N1CCCCC1)NC2 [NMP-141] | 88.6 | 481 ± 52.9 | 11.9 | -8.4 | – | 906 ± 211 | 88.7 | did not show any agonistic or antagonistic activities | 112 ± 3.3 | 51.9
